# How the values were obtained:
# Type in all cases: cell-based, human
# [1] = tested on: MCF-7 cells; assay: cells
# Experimental: For a typical siRNA transfection, […] of the annealed siRNA duplex was mixed with 1.4 ml of Opti-MEM reagent (Invitrogen). In another tube, […] of Oligofectamine reagent (Invitrogen, Carlsbad, Calif.) was mixed with […] of Opti-MEM. The two solutions were combined and mixed gently by inversion and incubated for 20 min. at RT. The resulting solution was added to the cultured cells drop by drop in a 10 cm dish (cells are approximately 40-50% confluent). The next day the transfected cells were trypsinized and seeded in 6 or 96-well plates and further incubated for the indicated amount of time (assay dependent) before further analysis.
# Cell survival was determined using the MTT cytotoxicity assay (see, e.g., Tokuyama et al. (2005) Anticancer Res. 25(1A): 17-22). Small interfering RNA transfected cells were seeded in triplicate into 96-well plates at 5×10^3 cells/well 48 hrs post-transfection. The cells were incubated for an additional 16 to 24 hrs before they were exposed to increasing concentrations of cytotoxic drugs. Doxorubicin (adriamycin), cisplatin, taxol, vinblastine, vincristine, and mitoxantrone were all purchased from Sigma Corp. (St. Louis, Mo.). Stocks were made as follows: 6 mM for doxorubicin, 1.1 mM for vincristine and vinblastine; 1.1 mM for taxol, 50 mM for cisplatin both in DMSO; and 0.97 mM mitoxantrone in ethanol. Appropriate dilutions were made in the respective media for each cell line. Following addition of drugs, incubation was continued for an additional 72 hrs. […] of MTT dye (5 mg/ml) were added into each well and the plate was further incubated at 37° C. for 4 hrs. The dye was solubilized with 10% Triton X-100, 0.01 N HCl and further incubated at 37° C. in the dark for 30 min. Cell viability was determined by measure of absorption at 570 nm in a Wallac multiwell plate reader (PerkinElmer, Inc., Boston, Mass.). The averages of triplicate wells were plotted using the Prism software (GraphPad Software, Inc., San Diego, Calif.).
# [2] = tested on: MCF-7 cells; assay: Apoptosis assay (Annexin V staining); conditions: FIG. 4
# Experimental: This assay was performed to determine the number of cells that were susceptible to chemotherapeutic drugs following incubation with siRNAs. Cells transfected with siRNA were seeded in Lab-Tek 16-well chamber slides (Electron Microscopy Sciences, Hatfield, Pa.) at 10^4 cells/well 48 hrs post-transfection. Apoptosis was determined 16 hours later by annexin-V staining using the Annexin-V FLUOS kit (Roche, Ltd., Basel, CH) following the manufacturer's instructions. Slides were observed under a fluorescence microscope and images were taken using an Olympus digital camera and the Q-Capture software (QImaging, Burnaby, BC, CA).
# [3] = tested on: calumenin; assay: Immunoblot of calumenin expression after siRNA transfection of MCF-7 cells; conditions: compared to mock and control siRNA, FIG. 2
# From the text: To establish the importance of calumenin to the expression of the drug-resistant phenotype in MCF-7 cell lines, calumenin expression was silenced using RNAi. Briefly, the following siRNA duplexes targeting the human calumenin mRNA were designed and purchased either from Ambion (Austin, Tex.) or Invitrogen (Carlsbad, Calif.). The siRNA duplex sequences corresponding to nucleotides […] (REFSEQ ID NUMBER: NM_001428) targeting the start of the calumenin mRNA transcript were:
# For a typical siRNA transfection, […] of the annealed siRNA duplex was mixed with 1.4 ml of Opti-MEM reagent (Invitrogen). In another tube, […] of Oligofectamine reagent (Invitrogen, Carlsbad, Calif.) was mixed with […] of Opti-MEM. The two solutions were combined and mixed gently by inversion and incubated for 20 min. at RT. […]
# To determine the ability of cells to proliferate after they were transfected with […] or control siRNAs as indicated above, the cells were seeded the next day in a 96-well plate at 5×10^3 cells/well in quadruplicate. […] The resulting fluorescence was measured in a Wallac microplate reader (PerkinElmer, Inc., Boston, Mass.) using a 535 nm filter. […] The number of cells was determined by extrapolation from a standard curve.
substance,measurement,setting,value
"Calumenin siRNA: siRNA duplex targeting human calumenin mRNA; sense 5′-GAAGGACCGUGUACAUCAU-3′ (SEQ ID NO: 1), anti-sense 5′-AUGAUGUACACGGUCCUUC-3′ (SEQ ID NO: 2), 3′TT overhangs (3' TT overhangs on both strands, further chemistry not given here)",decrease in cell viability of MCF-7 cells,[1],48%
same,number of Annexin-V-positive cells,[2]; compared to cell population treated with control siRNA,substantially greater number
same,cell survival,[2]; compared to cells treated with siGLO control siRNA,decreased
same,calumenin expression,[3],significantly decreased

# Source: patent US20070243548A1, “Calumenin-directed diagnostics and therapeutics for cancer and chemotherapeutic drug resistance” (priority 2006, published 2007)
